Source: patent publication US8883841B2, “Oncogenic ras-specific cytotoxic compound and methods of use thereof” (The Board of Regents of the University of Texas System, priority 2005, dated 2014)
Read-outs that look alike come from different tables or passages of the source.

Assays:
A498 = experiment: NCI in-vitro testing, A498 (Renal Cancer)
KM12 = experiment: NCI in-vitro testing, KM12 (Colon Cancer)
RXF 393 = experiment: NCI in-vitro testing, RXF 393 (Renal Cancer)
NCI/ADR-RES = experiment: NCI in-vitro testing, NCI/ADR-RES (Breast Cancer)
SF-295 = experiment: NCI in-vitro testing, SF-295 (CNS Cancer)
H2087 = experiment: Cell viability, H2087 lung cancer cells; format: cell-based, human; details: Homo sapiens, NCI-H2087; H2087, Lung; read-out: IC50 (−LogM) (converted)
MOLT-4 = experiment: NCI in-vitro testing, MOLT-4 (Leukemia)
Ovcar443 = experiment: Cell viability, Ovcar443 ovary cancer cells; format: cell-based
SF-539 = experiment: NCI in-vitro testing, SF-539 (CNS Cancer)
MCF7 = experiment: NCI in-vitro testing, MCF7 (Breast Cancer)
NCI-H23 = experiment: NCI in-vitro testing, NCI-H23 (Non-Small Cell Lung Cancer)
NCI-H226 = experiment: NCI in-vitro testing, NCI-H226 (Non-Small Cell Lung Cancer)
TK-10 = experiment: NCI in-vitro testing, TK-10 (Renal Cancer)
BT-549 = experiment: NCI in-vitro testing, BT-549 (Breast Cancer)
M14 = experiment: NCI in-vitro testing, M14 (Melanoma)
[1] = tested on: panel of 60 cancer cell lines; experiment: NCI Developmental Therapeutics Program in-vitro testing, panel of 60 cancer cell lines (whole panel); format: cell-based
HCT-15 = experiment: NCI in-vitro testing, HCT-15 (Colon Cancer)

OCc1cn(Cc2ccc(Cl)cc2)c2ccccc12 [Oncrasin K060, 1H-Indole-3-methanol, 1-[(4-chlorophenyl)methyl]-]
TGI (A498; A498): 3.33E−8 Molar
Percent Growth (A498; A498, Log10 Concentration −4.0 Molar): −94%
Percent Growth (A498; A498, Log10 Concentration −5.0 Molar): −95%
Percent Growth (A498; A498, Log10 Concentration −6.0 Molar): −87%
Percent Growth (A498; A498, Log10 Concentration −7.0 Molar): −56%
Percent Growth (A498; A498, Log10 Concentration −8.0 Molar): 61%
GI50 (A498; Homo sapiens, A498): 0.0124 µM
CC50 (A498; Homo sapiens, A498, read-out: LC50): 0.089 µM
GI50 (A498; Homo sapiens, A498, read-out: Log10 GI50 (converted)): 0.0123 µM
GI50 (KM12; Homo sapiens, KM12): 18.3 µM
CC50 (KM12; Homo sapiens, KM12, read-out: LC50): 9.44 µM
GI50 (KM12; Homo sapiens, KM12, read-out: Log10 GI50 (converted)): 18.2 µM
TGI (KM12; KM12): 1.15E−6 Molar
Percent Growth (KM12; KM12, Log10 Concentration −4.0 Molar): −64%
Percent Growth (KM12; KM12, Log10 Concentration −5.0 Molar): 87%
Percent Growth (KM12; KM12, Log10 Concentration −6.0 Molar): 102%
Percent Growth (KM12; KM12, Log10 Concentration −7.0 Molar): 113%
Percent Growth (KM12; KM12, Log10 Concentration −8.0 Molar): 108%
GI50 (RXF 393; Homo sapiens, RXF 393): < 0.01 µM
CC50 (RXF 393; Homo sapiens, RXF 393, read-out: LC50): 23.2 µM
GI50 (RXF 393; Homo sapiens, RXF 393, read-out: Log10 GI50 (converted)): < 0.01 µM
TGI (RXF 393; RXF 393): 2.44E−7 Molar
Percent Growth (RXF 393; RXF 393, Log10 Concentration −4.0 Molar): −85%
Percent Growth (RXF 393; RXF 393, Log10 Concentration −5.0 Molar): −30%
Percent Growth (RXF 393; RXF 393, Log10 Concentration −6.0 Molar): −12%
Percent Growth (RXF 393; RXF 393, Log10 Concentration −7.0 Molar): 7%
Percent Growth (RXF 393; RXF 393, Log10 Concentration −8.0 Molar): 31%
TGI (NCI/ADR-RES): 3.32E−5 Molar
GI50 (NCI/ADR-RES; Homo sapiens): 9.22 µM
CC50 (NCI/ADR-RES; Homo sapiens, read-out: LC50): > 100 µM
GI50 (NCI/ADR-RES; Homo sapiens, read-out: Log10 GI50 (converted)): 9.12 µM
Percent Growth (NCI/ADR-RES; Log10 Concentration −4.0 Molar): −45%
Percent Growth (NCI/ADR-RES; Log10 Concentration −5.0 Molar): 49%
Percent Growth (NCI/ADR-RES; Log10 Concentration −6.0 Molar): 86%
Percent Growth (NCI/ADR-RES; Log10 Concentration −7.0 Molar): 94%
Percent Growth (NCI/ADR-RES; Log10 Concentration −8.0 Molar): 103%
GI50 (SF-295; Homo sapiens, SF-295): 14.3 µM
CC50 (SF-295; Homo sapiens, SF-295, read-out: LC50): > 100 µM
GI50 (SF-295; Homo sapiens, SF-295, read-out: Log10 GI50 (converted)): 1.41 µM
TGI (SF-295; SF-295): 3.52E−5 Molar
Percent Growth (SF-295; SF-295, Log10 Concentration −4.0 Molar): −15%
Percent Growth (SF-295; SF-295, Log10 Concentration −5.0 Molar): 18%
Percent Growth (SF-295; SF-295, Log10 Concentration −6.0 Molar): 56%
Percent Growth (SF-295; SF-295, Log10 Concentration −7.0 Molar): 80%
Percent Growth (SF-295; SF-295, Log10 Concentration −8.0 Molar): 104%
IC50 (H2087): 25.1 µM
GI50 (MOLT-4; Homo sapiens, MOLT-4): 17.7 µM
CC50 (MOLT-4; Homo sapiens, MOLT-4, read-out: LC50): 82.8 µM
GI50 (MOLT-4; Homo sapiens, MOLT-4, read-out: Log10 GI50 (converted)): 17.8 µM
TGI (MOLT-4; MOLT-4): 3.82E−5 Molar
Percent Growth (MOLT-4; MOLT-4, Log10 Concentration −4.0 Molar): −62%
Percent Growth (MOLT-4; MOLT-4, Log10 Concentration −5.0 Molar): 87%
Percent Growth (MOLT-4; MOLT-4, Log10 Concentration −6.0 Molar): 109%
Percent Growth (MOLT-4; MOLT-4, Log10 Concentration −7.0 Molar): 102%
Percent Growth (MOLT-4; MOLT-4, Log10 Concentration −8.0 Molar): 114%
IC50 (Ovcar443): 2.51 µM
GI50 (SF-539; Homo sapiens, SF-539): 10.9 µM
CC50 (SF-539; Homo sapiens, SF-539, read-out: LC50): 60 µM
GI50 (SF-539; Homo sapiens, SF-539, read-out: Log10 GI50 (converted)): 11 µM
TGI (SF-539; SF-539): 2.70E−5 Molar
Percent Growth (SF-539; SF-539, Log10 Concentration −4.0 Molar): −73%
Percent Growth (SF-539; SF-539, Log10 Concentration −5.0 Molar): 55%
Percent Growth (SF-539; SF-539, Log10 Concentration −6.0 Molar): 104%
Percent Growth (SF-539; SF-539, Log10 Concentration −7.0 Molar): 110%
Percent Growth (SF-539; SF-539, Log10 Concentration −8.0 Molar): 108%
GI50 (MCF7; Homo sapiens, MCF7): 0.0573 µM
CC50 (MCF7; Homo sapiens, MCF7, read-out: LC50): > 100 µM
GI50 (MCF7; Homo sapiens, MCF7, read-out: Log10 GI50 (converted)): 0.0676 µM
TGI (MCF7; MCF7): 2.75E−5 Molar
Percent Growth (MCF7; MCF7, Log10 Concentration −4.0 Molar): −10%
Percent Growth (MCF7; MCF7, Log10 Concentration −5.0 Molar): 8%
Percent Growth (MCF7; MCF7, Log10 Concentration −6.0 Molar): 10%
Percent Growth (MCF7; MCF7, Log10 Concentration −7.0 Molar): 45%
Percent Growth (MCF7; MCF7, Log10 Concentration −8.0 Molar): 75%
GI50 (NCI-H23; Homo sapiens, NCI-H23): 2.9 µM
CC50 (NCI-H23; Homo sapiens, NCI-H23, read-out: LC50): 71.1 µM
GI50 (NCI-H23; Homo sapiens, NCI-H23, read-out: Log10 GI50 (converted)): 2.88 µM
TGI (NCI-H23; NCI-H23): 2.10E−5 Molar
Percent Growth (NCI-H23; NCI-H23, Log10 Concentration −4.0 Molar): −54%
Percent Growth (NCI-H23; NCI-H23, Log10 Concentration −5.0 Molar): 31%
Percent Growth (NCI-H23; NCI-H23, Log10 Concentration −6.0 Molar): 67%
Percent Growth (NCI-H23; NCI-H23, Log10 Concentration −7.0 Molar): 82%
Percent Growth (NCI-H23; NCI-H23, Log10 Concentration −8.0 Molar): 94%
GI50 (NCI-H226; Homo sapiens, NCI-H226): < 0.01 µM
CC50 (NCI-H226; Homo sapiens, NCI-H226, read-out: LC50): 0.501 µM
GI50 (NCI-H226; Homo sapiens, NCI-H226, read-out: Log10 GI50 (converted)): < 0.01 µM
TGI (NCI-H226; NCI-H226): 4.48E−8 Molar
Percent Growth (NCI-H226; NCI-H226, Log10 Concentration −4.0 Molar): −65%
Percent Growth (NCI-H226; NCI-H226, Log10 Concentration −5.0 Molar): −68%
Percent Growth (NCI-H226; NCI-H226, Log10 Concentration −6.0 Molar): −82%
Percent Growth (NCI-H226; NCI-H226, Log10 Concentration −7.0 Molar): −22%
Percent Growth (NCI-H226; NCI-H226, Log10 Concentration −8.0 Molar): 40%
GI50 (TK-10; Homo sapiens, TK-10): 0.0153 µM
CC50 (TK-10; Homo sapiens, TK-10, read-out: LC50): > 100 µM
GI50 (TK-10; Homo sapiens, TK-10, read-out: Log10 GI50 (converted)): 0.0151 µM
TGI (TK-10; TK-10): 8.94E−8 Molar
Percent Growth (TK-10; TK-10, Log10 Concentration −4.0 Molar): −18%
Percent Growth (TK-10; TK-10, Log10 Concentration −5.0 Molar): −8%
Percent Growth (TK-10; TK-10, Log10 Concentration −6.0 Molar): −10%
Percent Growth (TK-10; TK-10, Log10 Concentration −7.0 Molar): −3%
Percent Growth (TK-10; TK-10, Log10 Concentration −8.0 Molar): 82%
TGI (BT-549; BT-549): 1.73E−5 Molar
Percent Growth (BT-549; BT-549, Log10 Concentration −4.0 Molar): −85%
Percent Growth (BT-549; BT-549, Log10 Concentration −5.0 Molar): 26%
Percent Growth (BT-549; BT-549, Log10 Concentration −6.0 Molar): 97%
Percent Growth (BT-549; BT-549, Log10 Concentration −7.0 Molar): 118%
Percent Growth (BT-549; BT-549, Log10 Concentration −8.0 Molar): 110%
GI50 (BT-549; Homo sapiens, BT-549): 4.62 µM
CC50 (BT-549; Homo sapiens, BT-549, read-out: LC50): 4.88 µM
GI50 (BT-549; Homo sapiens, BT-549, read-out: Log10 GI50 (converted)): 4.57 µM
GI50 (M14; Homo sapiens, M14): 6.16 µM
CC50 (M14; Homo sapiens, M14, read-out: LC50): 55.9 µM
GI50 (M14; Homo sapiens, M14, read-out: Log10 GI50 (converted)): 5.13 µM
TGI (M14; M14): 2.03E−5 Molar
Percent Growth (M14; M14, Log10 Concentration −4.0 Molar): −79%
Percent Growth (M14; M14, Log10 Concentration −5.0 Molar): 35%
Percent Growth (M14; M14, Log10 Concentration −6.0 Molar): 87%
Percent Growth (M14; M14, Log10 Concentration −7.0 Molar): 94%
Percent Growth (M14; M14, Log10 Concentration −8.0 Molar): 95%
anticancer spectrum in NCI panel ([1]; leukemia, non small lung, colon, melanoma, ovarian, renal, breast): active in a number of cancer cell lines
GI50 ([1]; of 54 cancer cell lines tested, read-out: medium 50% growth inhibition (GI50) concentration): 1.12 µM
TGI (HCT-15; HCT-15): 2.58E−5 Molar
Percent Growth (HCT-15; HCT-15, Log10 Concentration −4.0 Molar): −31%
Percent Growth (HCT-15; HCT-15, Log10 Concentration −5.0 Molar): 21%
Percent Growth (HCT-15; HCT-15, Log10 Concentration −6.0 Molar): 69%
Percent Growth (HCT-15; HCT-15, Log10 Concentration −7.0 Molar): 90%
Percent Growth (HCT-15; HCT-15, Log10 Concentration −8.0 Molar): 99%
GI50 (HCT-15; Homo sapiens, HCT-15): 2.52 µM
CC50 (HCT-15; Homo sapiens, HCT-15, read-out: LC50): > 100 µM
GI50 (HCT-15; Homo sapiens, HCT-15, read-out: Log10 GI50 (converted)): 2.51 µM
